Key:
[1] = test system: Pseudomonas sp.; experiment: Efficacy of biocides in the presence of anti-scale and corrosion inhibiting treatment (CWC); type: cell-based; conditions: dose 4 mg/l; pH 9.0; contact time 6 hours
Source text: Efficacy of Biocides in the Presence of Anti-Scale and Corrosion Inhibiting Treatment (CWC)
Stock concentration: 0.5% as Cl2
Efficacy against pseudomonas sp.

[2] = test system: biofouling and growth of algae; experiment: Field experiment, cooling tower 1
Protocol: • Cooling tower; contained volume 1000 m^3 • Circulation rate 500 m^3/h • Scale and corrosion inhibitor: CWC: 100 mg/l
The tower was controlled on low level (0.6-1.2 kg/day) of BCDMH feed. Use of BCDMH was effective as long as make-ups were softened in ion-exchangers.
The system was shock-fed with NH4Br+NaOCl. Overall dosage: 75 liters NaOCl (10%) 12.6 kg NH4Br. The mixture was fed during 1.5 hours.
A slug dose of 25 liters NaOCl (10% as Cl2) (+4.2 kg NH4Br) was then fed to the cooling tower once in two to three days. […] A measurable residue of 0.6-0.4 ppm (as total chlorine) was measured in the water 24 and 48 hours after feeding the mixture.

[3] = test system: biofilm, slime and algae growth; experiment: Field experiment, cooling tower 2 (corn processing plant); conditions: BCDMH 1.50-2.26 kg/day daily
Protocol: • Corn processing plant. • Contained volume: 20 m^3 • Circulation rate: 300 m^3/h • pH: 7.5-8.0 • Water temperature: 36° C.-57° C.
This tower was treated with BCDMH (1.50-2.26 kg/day) daily. Due to a very high organic load in the water, growth of biofilm was very fast.

[4] = test system: MOs in starch sizing mixture; experiment: Efficacy of oxidizing and non-oxidizing biocides in a starch sizing mixture (paper industry); type: cell-based; conditions: 30 ppm active ingredient, 60° C.; for Surviving MOs after time (hours): 4: 4 hours; for Surviving MOs after time (hours): 28: 28 hours; for Surviving MOs after time (hours): 48: 48 hours; for Surviving MOs after time (hours): 72: 72 hours
Protocol: Efficacy of Oxidizing and Non-Oxidizing Biocides is a Starch Sizing Mixture (Paper Industry)
Efficacy was measured at 60° C.
NH4Br+NaOCl: stock concentration 0.1%.
Dosage: 30 ppm active ingredient.
Incubation temperature 60° C.

[5] = test system: total aerobic viable counts; experiment: Efficacy of oxidizing biocides in water taken from a paper mill (thick stock of pulp slurry); type: cell-based; conditions: 15 mg/l as Cl2; 30 minutes
Protocol: Efficacy of Oxidizing Biocides in Water Taken from a Paper Mill (Thick Stock of Pulp Slurry)
Microorganisms were incubated at 37° C. (total aerobic viable counts).
Concentration of stock solution: 0.1% as Cl2.

[6] = test system: aerob. MOs; experiment: Efficacy in domestic waste containing a high concentration of amines: aerobic MOs; type: cell-based; conditions: 60 ppm; contact time 10 minutes; N as NH3 50mg/l; pH 6.10
Protocol: (§1) Efficacy of a Series of Biocides in Domestic Waste Containing a High Concentration of Amines
(§2) Incubation temperature: 27° C.
(§3) Stock concentration: 0.2%

[7] = test system: anaer. MOs; experiment: Efficacy in domestic waste containing a high concentration of amines: anaerobic MOs; type: cell-based; conditions: 60 ppm; contact time 10 minutes; N as NH3 50mg/l; pH 6.10
Protocol: as §1, §2, §3

[8] = test system: fungi; experiment: Efficacy in domestic waste containing a high concentration of amines: fungi; type: cell-based; conditions: 60 ppm; contact time 10 minutes; N as NH3 50mg/l; pH 6.10
Protocol: as §1, §2, §3

[9] = Residue as Cl2 in domestic waste containing a high concentration of amines; type: physicochemical; conditions: 60 ppm
Protocol: as §1, §2, §3

[10] = test system: survivors in water taken from a citrus juice evaporator; experiment: Efficacy in water taken from a citrus juice evaporator; comparison to non-oxidizing biocides; type: cell-based; conditions: dose 30 mg/l
Protocol: Efficacy of NH4Cl+NaOCl in Water Taken from a Citrus Juice Evaporator; Comparison to Non-Oxidizing Biocides
Water demand: higher than 30 ppm of Cl2 (out of 30 ppm Cl2) within 60 minutes.
Concentration of stock solution (NH4Cl+NaOCl): 1000 ppm.
Algicol II is a quaternary ammonium salt.

## CC1(C)C(=O)N(Cl)C(=O)N1Br [BCDMH]
[1]
  Survivors in CWC (100 mg/l): 3 × 10^5
  Survivors in buffer: 0
[2]; BCDMH 4-6 kg/day, CWC (100 mg/l of phosphonate)
  prevention of biofouling and growth of algae: did not suffice to prevent biofouling and growth of algae
[2]; BCDMH feed 0.6-1.2 kg/day, make-ups softened in ion-exchangers
  control of the tower: effective
[3]
  control of daily grown films: effective in controlling the daily grown films
  efficacy against heavy slimes covering the cooling tower: not effective against heavy slimes

## N#CC(Br)(Br)C(N)=O [DBNPA]
[4]
  Surviving MOs after time (hours): 4: 3 × 10^4 cfu/ml
  Surviving MOs after time (hours): 28: 2 × 10^5 cfu/ml
  Surviving MOs after time (hours): 48: 2 × 10^5 cfu/ml
  Surviving MOs after time (hours): 72: 1 × 10^5 cfu/ml
[5]
  Viable counts after time (minutes): 30: 2 × 10^3 cfu/ml
[6]
  Surviving MOs after 10 minutes aerob.: 2 × 10^6 cfu/ml
[7]
  Surviving MOs after 10 minutes anaer.: 5 × 10^5 cfu/ml
[8]
  Surviving MOs after 10 minutes fungi: 0 cfu/ml
[9]; free
  Residue free as Cl2 after 10 minutes: 0 (0)
[9]; total
  Residue (total) as Cl2 after 10 minutes: 0 (0)
[1]
  Survivors in CWC (100 mg/l): 4 × 10^6
  Survivors in buffer: 0

## N#CSCSC#N [MBT]
[10]; 1 hour
  Survivors after time (hours): 1: 1 × 10^6 cfu/ml
[10]; 24 hours
  Survivors after time (hours): 24: 1 × 10^3 cfu/ml
[10]; 7 days
  Survivors after time: 7 days: 8 × 10^2 cfu/ml
[4]
  Surviving MOs after time (hours): 4: 9 × 10^4 cfu/ml
  Surviving MOs after time (hours): 28: 4 × 10^4 cfu/ml
  Surviving MOs after time (hours): 48: 2 × 10^4 cfu/ml
  Surviving MOs after time (hours): 72: 2 × 10^4 cfu/ml

## Cn1sccc1=O [MIT]
[4]
  Surviving MOs after time (hours): 4: 2 × 10^4 cfu/ml
  Surviving MOs after time (hours): 28: 2 × 10^3 cfu/ml
  Surviving MOs after time (hours): 48: 2 × 10^3 cfu/ml
  Surviving MOs after time (hours): 72: 1 × 10^3 cfu/ml
